The subject of one data set is A549. As to the kind of experiment: Antiproliferative activity against human A549 cells after 48 hrs by MTT assay. Format: functional, cell-based. Conditions: A549, 48 h.
The subject of another data set is HeLa. As to the kind of experiment: Antiproliferative activity against human HeLa cells after 48 hrs by MTT assay. Format: functional, cell-based.
The next data set relates to HepG2. In words: Antiproliferative activity against human HepG2 cells after 48 hrs by MTT assay. Format: functional, cell-based. The settings on record: HepG2, 48 h.
The next data set relates to NCI-H460. In words: Antiproliferative activity against human NCI-H460 cells after 48 by hrs MTT assay. Format: functional, cell-based.
Data set [1] relates to HL-60. In words: Antiproliferative activity against human HL60 cells after 48 hrs by MTT assay. Format: functional, cell-based. The settings on record: HL-60, 48 h.
Data set [2] can be described thus: Redox potential of the compound in pH 7.4 PBS buffer assessed as half wave potential at 0.4 mM by cyclic voltametry. Format: physicochemical. The settings on record: pH 7.4, 400 µM.
Data set [3] can be described thus: Redox potential of the compound in pH 7.4 PBS buffer assessed as oxidation potential at 0.4 mM by cyclic voltametry. Format: physicochemical. Conditions: pH 7.4, 400 µM.
The nature of data set [4]: Redox potential of the compound in pH 7.4 PBS buffer assessed as reduction potential at 0.4 mM by cyclic voltametry. Format: physicochemical. The settings on record: pH 7.4, 400 µM.
For data set [5], the system named is HL-60. As to the kind of experiment: Induction of apoptosis in human HL60 cells assessed as early apoptotic cells at 5 mM after 48 hrs by Annexin V-FITC/propidium iodide staining based flow cytometry (reference value: 3.13%). Format: functional.
Data set [6] deals with HL-60. As to the kind of experiment: Cell cycle arrest in human HL60 cells assessed as accumulation at S phase at 5 mM after 48 hrs by propidium iodide staining based assay (reference value: 46.44%). Format: functional.
Data set [7] relates to HL-60. In words: Induction of apoptosis in human HL60 cells assessed as late apoptotic cells at 5 mM after 48 hrs by Annexin V-FITC/propidium iodide staining based flow cytometry (reference value: 1.23%). Format: functional.
For data set [8], the system named is HL-60. As to the kind of experiment: Cell cycle arrest in human HL60 cells assessed as accumulation at G2/M phase at 5 mM after 48 hrs by propidium iodide staining based assay (reference value: 2.68%). Format: functional.
The subject of data set [9] is HL-60. As to the kind of experiment: Cell cycle arrest in human HL60 cells assessed as accumulation at G0/G1 phase at 5 mM after 48 hrs by propidium iodide staining based assay (reference value: 50.88%). Format: functional.
The test system of the next data set is WI-38. As to the kind of experiment: Antiproliferative activity against human WI38 cells after 48 hrs by MTT assay. Conditions: WI-38, 48 h. Format: cell-based.
A short description of data set [10]: Selectivity index, ratio of IC50 for human WI38 cells to IC50 for human HL60 cells. Format: toxicity. The settings on record: WI38 cells and HL60 cells, read-out: Ratio IC50.
The next data set concerns K562. As to the kind of experiment: Antiproliferative activity against human K562 cells after 48 hrs by MTT assay. Format: functional, cell-based. The settings on record: K562, 48 h.

As to `CCC1=C(O)C(=O)c2cc(OC)cc(OC)c2C1=O`, the IC50 in the data set on A549 was over 100 µM; with HeLa it was 96.5 µM; in the data set on HepG2 it was over 100 µM; in the data set with NCI-H460, over 100 µM; in the data set with HL-60 [1], over 100 µM.
Consider `COC1=C(CCc2ccc(OC)cc2)C(=O)c2c(OC)cc(OC)cc2C1=O`, for which the IC50 with A549 was over 100 µM; in the data set with HeLa it was 35 µM; in the data set on HepG2, 47.5 µM; in the data set with NCI-H460, 37.1 µM; in the data set on HL-60 [1] it was 52 µM.
As for `CCCCCCCCCCC1=C(O)C(=O)c2cc(OC)cc(OC)c2C1=O`, the IC50 in the data set on A549 is over 100 µM; in the data set on HeLa, over 100 µM; in the data set on HepG2 it was over 100 µM; in the data set on NCI-H460, over 100 µM; in the data set on HL-60 [1], 95.5 µM.
Turning to `COC1=C(CCC2CCCCC2)C(=O)c2c(OC)cc(OC)cc2C1=O`, the IC50 in the data set on A549 was over 100 µM; in the data set with HeLa it was 70.2 µM; in the data set on HepG2 it was 37.4 µM; in the data set on NCI-H460, 43.1 µM; with HL-60 [1] it was 55.9 µM.
For `CCCCCCCCC1=C(O)C(=O)c2cc(OC)cc(OC)c2C1=O`, the IC50 in the data set on A549, in the data set on HeLa, with HepG2, in the data set with NCI-H460 and in the data set with HL-60 [1] was over 100 µM in each case.
`O=c1[nH]cc(F)c(=O)[nH]1` [FLUOROURACIL]: the IC50 in the data set on HeLa amounted to 30.2 µM; in the data set with HepG2 it was 36.6 µM; with HL-60 [1], 67.2 µM.
For the molecule `CCCCC1=C(OC)C(=O)c2cc(OC)cc(OC)c2C1=O`, the figures for the Activity in [2], in data set [3] and in data set [4] were -0.249 V, -0.187 V and -0.311 V, respectively. Moreover, the IC50 in the data set on A549 is over 100 µM; in the data set with HeLa, 52.4 µM; in the data set with HepG2, 55.9 µM; with NCI-H460 it was 75.2 µM; in the data set on HL-60 [1], 61.4 µM.
On to `COc1ccc(CCC2=C(O)C(=O)c3cc(OC)cc(OC)c3C2=O)cc1`, for which the IC50 in the data set with A549 stood at 82.4 µM; with HeLa, 72.8 µM; with HepG2 it was 60.7 µM; with NCI-H460, 97.5 µM; with HL-60 [1] it was 93.1 µM.
For the molecule `CC(=O)N[C@@H](CS)C(=O)O` [ACETYLCYSTEINE], the Activity in the data set with HL-60 [5] worked out at 1.56%; in the data set on HL-60 [6], 40.12%; in the data set on HL-60 [7], 2.43%; in the data set with HL-60 [8] it was 2.52%; with HL-60 [9], 57.36%.
On to `CCCCCCCCCCCCC1=C(O)C(=O)c2cc(OC)cc(OC)c2C1=O`, for which the IC50 is over 100 µM in the data set with A549; over 100 µM with HeLa; over 100 µM in the data set with HepG2; over 100 µM in the data set on NCI-H460; 86.7 µM with HL-60 [1].
In the case of `CCCCC1=C(O)C(=O)c2cc(OC)cc(OC)c2C1=O`, the Activity in data set [2] is reported as -0.278 V; in data set [3] it was -0.227 V; in data set [4] it was -0.328 V. In addition, the IC50 with A549 is 65.4 µM; with HeLa, over 100 µM; in the data set with HepG2, 95.9 µM; with NCI-H460, over 100 µM; in the data set with HL-60 [1] it was over 100 µM.
On to `COc1cc(OC)c2c(c1)C(=O)C(O)=C(CCc1ccccc1)C2=O`, for which the IC50 in the data set on A549 is over 100 µM; in the data set on HeLa it was over 100 µM; with HepG2, 95.7 µM; in the data set on NCI-H460 it was over 100 µM; in the data set with HL-60 [1], 96.1 µM.
Turning to `COc1cc(OC)c2c(c1)C(=O)C(O)=C(CCc1ccc(Br)cc1)C2=O`, the IC50 is over 100 µM in the data set on A549; over 100 µM with HeLa; 73.2 µM with HepG2; over 100 µM with NCI-H460; over 100 µM in the data set on HL-60 [1].
`COc1cc(OC)c2c(c1)C(=O)C(O)=CC2=O`: the IC50 with A549, in the data set on HeLa, in the data set with HepG2, in the data set with NCI-H460 and with HL-60 [1] was over 100 µM each time.
As for `COc1cc(OC)c2c(c1)C(=O)C(O)=C(CCC1CCCCC1)C2=O`, the IC50 in the data set on A549 turned out to be 78.5 µM; with HeLa, 79.4 µM; in the data set on HepG2, 49.9 µM; in the data set with NCI-H460 it was 86.2 µM; in the data set on HL-60 [1] it was 95.8 µM.
Consider `COc1cc(OC)c2c(c1)C(=O)C(O)=C(C)C2=O`, for which the IC50 is over 100 µM with A549; 90.2 µM in the data set with HeLa; over 100 µM in the data set with HepG2; over 100 µM in the data set with NCI-H460; over 100 µM in the data set with HL-60 [1].
With `CCCCCCC1=C(O)C(=O)c2cc(OC)cc(OC)c2C1=O`, the IC50 in the data set on A549 was over 100 µM; with HeLa, over 100 µM; in the data set on HepG2 it was 90.4 µM; with NCI-H460, over 100 µM; in the data set on HL-60 [1], over 100 µM.
With `COc1cc(OC)c2c(c1)C(=O)C(Cl)=C(CCC1CCCCC1)C2=O`, the IC50 in the data set on WI-38 turned out to be 34.2 µM; in the data set on A549 it was 63 µM; in the data set with HeLa it was 21.2 µM; in the data set on HepG2 it was 41.4 µM; with NCI-H460, 61 µM; in the data set on K562, 29.9 µM. Also, in the data set with HL-60 [1], the IC50 worked out at 9.2 µM. The selectivity ratio in data set [10] was found to be 3.7.
On to `COc1cc(OC)c2c(c1)C(=O)C(O)=C(CCc1ccc(N(CCCl)CCCl)cc1)C2=O`, for which the IC50 with A549 is over 100 µM; in the data set on HeLa it was over 100 µM; in the data set on HepG2, 81.4 µM; in the data set with NCI-H460, over 100 µM; in the data set on HL-60 [1] it was 26.1 µM.
In the case of `CCCC1=C(O)C(=O)c2cc(OC)cc(OC)c2C1=O`, the IC50 with A549 was 78.7 µM; with HeLa it was over 100 µM; in the data set on HepG2 it was over 100 µM; with NCI-H460 it was over 100 µM; in the data set with HL-60 [1], over 100 µM.
Turning to `COc1ccc(CCC2=C(Cl)C(=O)c3cc(OC)cc(OC)c3C2=O)cc1`, the IC50 in the data set on WI-38 was 26.8 µM; in the data set on A549, 83.1 µM; with HeLa, 29.3 µM; with HepG2, 37.1 µM; in the data set on NCI-H460 it was over 100 µM; in the data set with K562 it was 19.2 µM. The molecule also gave an IC50 in the data set with HL-60 [1] of 15.3 µM. Besides, the selectivity ratio in data set [10] was determined as 1.8.

The values are drawn from ChEMBL document CHEMBL4184120, “Target ROS to induce apoptosis and cell cycle arrest by 5,7-dimethoxy-1,4-naphthoquinone derivative” (Bioorg Med Chem Lett, 2018).
